Data reported in paper PMC2799336 (Journal of the American Chemical Society, 2009).

What was measured:
LplA [1] = details: cited from earlier work
[2] = target: T1, E. coli lipoic acid ligase (LplA) (Escherichia coli, UniProt P32099); assay: HPLC kinetics of LplA-catalyzed lipoylation; type: biochemical
LplA [3] = details: 1:10, 1:100, 1:1000 mixtures of E2p:LAP1; 300 nM LplA, 30 minutes; PCR analysis
[4] = target: T1, E. coli lipoic acid ligase (LplA); details: azide 7 ligation; cited from earlier work
biotin ligase (BirA) = details: 12 hour reaction with 5 μM BirA; HPLC; data not shown
LplA [5] = system: LplA
HeLa mammalian cells = assay: Surface expression of LAP-CFP-TM fusions in mammalian cells; details: CFP fluorescence
LplA [6] = details: LAP2 fused to the C- rather than N-terminus of HP1; 50 nM LplA, 1 hour, 30 °C; HPLC

T1 sequence (P32099 whole entry): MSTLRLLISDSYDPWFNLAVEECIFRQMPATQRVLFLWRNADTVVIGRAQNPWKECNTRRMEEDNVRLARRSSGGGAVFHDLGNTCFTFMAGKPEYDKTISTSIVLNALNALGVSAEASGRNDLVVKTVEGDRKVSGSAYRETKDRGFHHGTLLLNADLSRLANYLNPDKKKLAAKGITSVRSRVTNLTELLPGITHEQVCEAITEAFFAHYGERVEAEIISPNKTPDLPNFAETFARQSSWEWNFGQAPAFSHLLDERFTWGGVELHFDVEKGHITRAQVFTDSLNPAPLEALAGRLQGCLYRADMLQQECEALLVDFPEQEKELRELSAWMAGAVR

Row | Sequence | ligation of lipoic acid, alkyl azide, aryl azide (LplA [1]; LAP1 fusion proteins) | labeling at the cell surface (LplA [1]; LAP1 fusions) | ligation of bromoalkanoic acid and coumarin (LplA [1]; LAP1 fusions) | Km ([2]; read-out: Km (estimated), LAP1, estimated, measured by HPLC, data not shown) [µM] | yeast remaining after one round of selection (LplA [3]) | kcat [4] [s⁻¹] | recognition by LplA by position in fusion (LplA [1]; LAP2) | labeling in the cytosol / inside living cells (LplA [1]) | biotinylation by BirA (biotin ligase (BirA)) | cell surface lipoylation compared with E2p (LplA [5]; CFP-TM fusions in HEK cells, average signal ratios, Figure S5B) | cell surface lipoylation of fusion proteins (LplA [5]; even at low expression levels) | kcat/Km fold worse than natural lipoate and biotin acceptor proteins ([2]; LAP2 versus natural acceptor proteins) [fold] | kcat/Km fold better than LAP1 ([2]; LAP2 versus previous rationally-designed 22-amino acid LAP1) [fold] | kcat/Km ([2]; lipoylation of synthetic LAP2 peptide, 50 nM LplA, 750 μM lipoic acid, 2 mM ATP, 5 mM magnesium acetate in DPBS, 30 °C, LAP2 5.5-352 μM, HPLC, Michaelis-Menten) [M⁻¹ s⁻¹] | cell surface expression (HeLa mammalian cells) | conversion to lipoylated product, C-terminal HP1 fusion (LplA [6])
1 | DEVLVEIETDKAVLEVPGGEEE [LAP1] | in vitro and in cell lysate, but not on the cell surface except under conditions of high LAP1-POI over-expression | difficult to label at the cell surface | could not be ligated to LAP1 fusions in any context | > 200 | could not be detected | 0.048 ± 0.001 |  |  |  |  |  |  |  |  |  | 
2 | GFEIDKVWYDLDA [LAP2] |  |  |  |  |  |  | can be recognized by LplA at the N-terminus, C-terminus, and internally | allows fluorophore tagging of intracellular proteins | no biotinylation | comparable even to E2p | could easily lipoylate cell surface LAP2 fusion proteins, even at low expression levels | 8 | > 70 | 16500 | clear cell surface expression | decreased somewhat, but was still higher than all other LAP sequences at the N-terminus
